According to ChEMBL document CHEMBL2424515, “Identification of novel substrates and structure-activity relationship of cellular uptake mediated by human organic cation transporters 1 and 2” (J Med Chem, 2013):

T1: Solute carrier family 22 member 1 (Homo sapiens, UniProt O15245)
T1 sequence (O15245 whole entry): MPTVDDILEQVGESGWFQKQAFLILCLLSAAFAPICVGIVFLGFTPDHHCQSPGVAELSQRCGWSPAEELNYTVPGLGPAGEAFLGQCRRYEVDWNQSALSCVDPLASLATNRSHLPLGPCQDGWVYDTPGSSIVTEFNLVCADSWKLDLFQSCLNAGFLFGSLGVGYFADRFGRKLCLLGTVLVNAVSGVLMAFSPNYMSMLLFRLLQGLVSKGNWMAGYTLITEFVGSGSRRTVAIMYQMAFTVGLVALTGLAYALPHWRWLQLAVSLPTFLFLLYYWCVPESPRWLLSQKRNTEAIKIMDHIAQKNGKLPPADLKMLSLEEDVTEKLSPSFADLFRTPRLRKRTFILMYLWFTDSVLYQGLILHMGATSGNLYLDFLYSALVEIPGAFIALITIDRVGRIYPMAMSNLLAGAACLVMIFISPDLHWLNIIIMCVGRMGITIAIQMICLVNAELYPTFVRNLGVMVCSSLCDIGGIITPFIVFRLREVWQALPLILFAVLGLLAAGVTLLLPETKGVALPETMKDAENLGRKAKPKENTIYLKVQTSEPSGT

T2: OCT1 (SLC22A1) (Homo sapiens, UniProt O15245)
T2 sequence (O15245 whole entry): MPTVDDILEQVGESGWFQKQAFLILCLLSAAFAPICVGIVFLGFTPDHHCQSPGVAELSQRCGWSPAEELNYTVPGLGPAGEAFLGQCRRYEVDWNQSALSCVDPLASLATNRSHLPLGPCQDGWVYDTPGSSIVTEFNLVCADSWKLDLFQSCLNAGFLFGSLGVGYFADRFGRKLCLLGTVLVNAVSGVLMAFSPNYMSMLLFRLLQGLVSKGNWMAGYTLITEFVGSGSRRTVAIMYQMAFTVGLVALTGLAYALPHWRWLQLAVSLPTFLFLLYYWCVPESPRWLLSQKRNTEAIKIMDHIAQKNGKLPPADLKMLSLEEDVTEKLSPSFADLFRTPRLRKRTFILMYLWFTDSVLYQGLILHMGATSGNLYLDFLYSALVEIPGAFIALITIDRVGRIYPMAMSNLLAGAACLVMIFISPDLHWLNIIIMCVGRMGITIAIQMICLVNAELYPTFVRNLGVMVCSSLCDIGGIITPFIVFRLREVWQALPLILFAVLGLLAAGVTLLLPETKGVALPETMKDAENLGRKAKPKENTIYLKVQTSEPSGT

T3: Solute carrier family 22 member 2 (Homo sapiens, UniProt O15244)
T3 sequence (O15244 whole entry): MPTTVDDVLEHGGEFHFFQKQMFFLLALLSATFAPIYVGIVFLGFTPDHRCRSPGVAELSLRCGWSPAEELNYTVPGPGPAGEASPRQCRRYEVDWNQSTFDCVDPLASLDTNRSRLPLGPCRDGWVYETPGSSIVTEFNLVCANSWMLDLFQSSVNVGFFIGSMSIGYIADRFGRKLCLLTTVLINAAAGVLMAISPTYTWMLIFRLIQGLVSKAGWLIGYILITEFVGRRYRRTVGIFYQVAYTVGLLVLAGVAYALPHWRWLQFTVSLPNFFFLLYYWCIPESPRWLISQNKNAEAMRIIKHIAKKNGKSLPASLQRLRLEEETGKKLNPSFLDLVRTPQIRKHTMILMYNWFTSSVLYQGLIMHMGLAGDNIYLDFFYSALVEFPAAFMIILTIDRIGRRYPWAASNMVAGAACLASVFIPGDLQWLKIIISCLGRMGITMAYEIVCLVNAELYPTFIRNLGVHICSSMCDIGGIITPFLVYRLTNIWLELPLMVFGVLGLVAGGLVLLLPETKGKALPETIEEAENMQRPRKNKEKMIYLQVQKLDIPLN

T4: OCT2 (SLC22A2) (Homo sapiens, UniProt O15244)
T4 sequence (O15244 whole entry): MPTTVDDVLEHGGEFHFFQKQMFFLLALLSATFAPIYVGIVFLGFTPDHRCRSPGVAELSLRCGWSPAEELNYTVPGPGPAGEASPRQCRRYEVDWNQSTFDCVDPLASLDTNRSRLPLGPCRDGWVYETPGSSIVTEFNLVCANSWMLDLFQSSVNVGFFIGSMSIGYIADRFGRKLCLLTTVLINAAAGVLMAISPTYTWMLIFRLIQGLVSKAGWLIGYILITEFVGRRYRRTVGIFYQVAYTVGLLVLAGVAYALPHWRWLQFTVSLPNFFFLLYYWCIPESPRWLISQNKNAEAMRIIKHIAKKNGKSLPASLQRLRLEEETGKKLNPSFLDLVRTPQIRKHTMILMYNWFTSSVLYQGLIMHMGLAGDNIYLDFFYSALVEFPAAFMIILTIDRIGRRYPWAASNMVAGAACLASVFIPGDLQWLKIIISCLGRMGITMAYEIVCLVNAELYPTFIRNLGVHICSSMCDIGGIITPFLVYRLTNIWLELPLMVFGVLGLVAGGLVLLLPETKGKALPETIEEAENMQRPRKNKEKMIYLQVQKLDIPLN


Columns and labels:
[1] = target: T1, Solute carrier family 22 member 1; assay: Cellular uptake in human HEK293 cells assessed as human OCT1-mediated drug transport at 2.5 uM after 4 mins by LC-MS/MS analysis; format: ADME, cell-based; conditions: hek293, 4 min
[2] = target: T2, OCT1 (SLC22A1); assay: Cellular uptake in human HEK293 cells assessed as human OCT1-mediated drug transport at 2.5 uM after 4 mins by LC-MS/MS analysis relative to passive uptake; format: ADME, cell-based; conditions: HEK293 cells expressing human OCT1, read-out: FC
[3] = target: T3, Solute carrier family 22 member 2; assay: Cellular uptake in human HEK293 cells assessed as human OCT2-mediated drug transport at 2.5 uM after 4 mins by LC-MS/MS analysis; format: ADME, cell-based; conditions: hek293, 4 min
[4] = target: T4, OCT2 (SLC22A2); assay: Cellular uptake in human HEK293 cells assessed as human OCT2-mediated drug transport at 2.5 uM after 4 mins by LC-MS/MS analysis relative to passive uptake; format: ADME, cell-based; conditions: HEK293 cells expressing human OCT2, read-out: FC
[5] = substrate: CC[N+](CC)(CC)CC; assay: cells, lysate or membranes named
[6] = substrate: CN/C(=N/CCSCc1nc[nH]c1C)NC#N; assay: cells, lysate or membranes named

| Molecule | Drug uptake [1] [pmol/mg] | uptake ratio at 4 min, 2.5 µM [2] | Drug uptake [3] [pmol/mg] | uptake ratio at 4 min, 2.5 µM [4] | Km [5] [µM] | Km [6] [µM] |
| --- | --- | --- | --- | --- | --- | --- |
| CNS(=O)(=O)Cc1ccc2[nH]cc(CCN(C)C)c2c1 | 620 | 15 | 94 | 3.3 |  |  |
| NCCOc1ccccc1-c1nc(C(N)=O)c(NC(N)=O)s1 | 796 | 13 | 40 | 1.3 |  |  |
| NCCCOc1ccccc1-c1nc(C(N)=O)c(NC(N)=O)s1 | 739 | 14 | 23 | 1.5 |  |  |
| NC(=O)Nc1sc(-c2ccccc2O[C@H]2CCNC2)cc1C(N)=O | 1047 | 26 | 37 | 1.9 |  |  |
| NC(=O)Nc1sc(-c2ccccc2O[C@@H]2CCNC2)cc1C(N)=O | 586 | 15 | 6.6 | 1.1 |  |  |
| NC(=O)Nc1sc(-c2ccccc2OC2CCNCC2)cc1C(N)=O | 821 | 17 | 35 | 1.8 |  |  |
| NC(=O)Nc1sc(-c2ccccc2OC2CNC2)cc1C(N)=O | 641 | 11 | 63 | 2.2 |  |  |
| NC(=O)Nc1sc(-c2cccc(OC3CCNC3)c2)cc1C(N)=O (racemic) | 1352 | 68 | 21 | 1.6 |  |  |
| C[N+]1(C)CCC(Oc2ccccc2-c2cc(C(N)=O)c(NC(N)=O)s2)C1 (racemic) | 903 | 53 | 46 | 4.3 |  |  |
| N#Cc1ccc(OC2CCNC2)c(-c2cc(C(N)=O)c(NC(N)=O)s2)c1 (racemic) | 1653 | 39 | 22 | 1.6 |  |  |
| NC(=O)Nc1sc(-c2ccc(OC3CCNC3)cc2)cc1C(N)=O (racemic) | 1493 | 73 | 8.5 | 1.4 |  |  |
| CC(C)(C)NCC(O)c1ccc(O)c(CO)c1 (centres undefined) [ALBUTEROL] | 58 | 11 | 270 | 15 |  |  |
| N=C(N)NC(=O)c1nc(Cl)c(N)nc1N [AMILORIDE] | 1430 | 76 | 1660 | 74 |  |  |
| CN/C(=N/CCSCc1nc[nH]c1C)NC#N [CIMETIDINE] | 65 | 6.5 | 270 | 15 |  |  |
| CN(C)C(=N)N=C(N)N [METFORMIN] | 5.4 |  | 110 |  |  |  |
| CC[N+](C)(CC)CCOC(=O)C(O)(c1ccccc1)C1CCCCC1 (centres undefined) [OXYPHENONIUM] | 640 | 25 | 230 | 14 |  |  |
| [H]/N=C(/N)N/C(=N/[H])NCCc1ccccc1 [PHENFORMIN] | 570 | > 39 | 450 | > 35 |  |  |
| CCC(NC(C)C)C(O)c1ccc(O)c2[nH]c(=O)ccc12 (centres undefined) [PROCATEROL] | 140 | 11 | 14 | 1.9 |  |  |
| CNC(=C[N+](=O)[O-])NCCSCc1ccc(CN(C)C)o1 [RANITIDINE] | 600 | 18 | 22 | 1.6 |  |  |
| C[N+]1(C)[C@@H]2C[C@@H](OC(=O)C(O)(c3cccs3)c3cccs3)C[C@H]1[C@@H]1O[C@@H]12 [TIOTROPIUM] | 820 | 75 | 460 | 39 |  |  |
| O=C(NCCNCC(O)COc1ccc(O)cc1)N1CCOCC1 (centres undefined) [XAMOTEROL] | 230 | 43 | 5.2 | 1.6 |  |  |
| Solute carrier family 22 member 1 (Homo sapiens) (protein) MPTVDDILEQVGESGWFQKQAFLILCLLSAAFAPICVGIVFLGFTPDHHCQSPGVAELSQRCGWSPAEELNYTVPGLGPAGEAFLGQCRRYEVDWNQSALSCVDPLASLATNRSHLPLGPCQDGWVYDTPGSSIVTEFNLVCADSWKLDLFQSCLNAGFLFGSLGVGYFADRFGRKLCLLGTVLVNAVSGVLMAFSPNYMSMLLFRLLQGLVSKGNWMAGYTLITEFVGSGSRRTVAIMYQMAFTVGLVALTGLAYALPHWRWLQLAVSLPTFLFLLYYWCVPESPRWLLSQKRNTEAIKIMDHIAQKNGKLPPADLKMLSLEEDVTEKLSPSFADLFRTPRLRKRTFILMYLWFTDSVLYQGLILHMGATSGNLYLDFLYSALVEIPGAFIALITIDRVGRIYPMAMSNLLAGAACLVMIFISPDLHWLNIIIMCVGRMGITIAIQMICLVNAELYPTFVRNLGVMVCSSLCDIGGIITPFIVFRLREVWQALPLILFAVLGLLAAGVTLLLPETKGVALPETMKDAENLGRKAKPKENTIYLKVQTSEPSGT |  |  |  |  | 140 |  |
| Solute carrier family 22 member 2 (Homo sapiens) (protein) MPTTVDDVLEHGGEFHFFQKQMFFLLALLSATFAPIYVGIVFLGFTPDHRCRSPGVAELSLRCGWSPAEELNYTVPGPGPAGEASPRQCRRYEVDWNQSTFDCVDPLASLDTNRSRLPLGPCRDGWVYETPGSSIVTEFNLVCANSWMLDLFQSSVNVGFFIGSMSIGYIADRFGRKLCLLTTVLINAAAGVLMAISPTYTWMLIFRLIQGLVSKAGWLIGYILITEFVGRRYRRTVGIFYQVAYTVGLLVLAGVAYALPHWRWLQFTVSLPNFFFLLYYWCIPESPRWLISQNKNAEAMRIIKHIAKKNGKSLPASLQRLRLEEETGKKLNPSFLDLVRTPQIRKHTMILMYNWFTSSVLYQGLIMHMGLAGDNIYLDFFYSALVEFPAAFMIILTIDRIGRRYPWAASNMVAGAACLASVFIPGDLQWLKIIISCLGRMGITMAYEIVCLVNAELYPTFIRNLGVHICSSMCDIGGIITPFLVYRLTNIWLELPLMVFGVLGLVAGGLVLLLPETKGKALPETIEEAENMQRPRKNKEKMIYLQVQKLDIPLN |  |  |  |  |  | 60 |
